Data: patent publication US8728516B2, “Stabilized lipid formulation of apoptosis promoter” (AbbVie Inc., priority 2009, dated 2014)

Tests used:
[1] = Drug solubility in ternary excipient systems (Example 2); format: physicochemical; conditions: 10% salt, 20% free base by weight
Source text: Solvents evaluated included Labrafil M 1944 CS™, Imwitor 742™ oleic acid, Capmul PG-8™, Capmul PG-12™, Lauroglycol 90™ (propylene glycol monolaurate, available from Gattefosse) and Phosal 53 MCT™. Surfactants evaluated included Tween 80™, Cremophor RH40™, Gelucire 44/14™ (polyoxyethylene glyceryl laurate, available from Gattefosse) and Labrasol™.

[2] = Sulfoxide formation, free base vs bis-HCl salt in lipid solution (Example 3); format: physicochemical; conditions: lipid solutions (PE-91, LOT-343) aged at 40°C for up to 3 weeks
Description: The solvent system in solution A is Phosal 53 MCT™/ethanol, 9:1 v/v; and in solution B is Labrafil M 1944 CS™/oleic acid/polysorbate 80, 30%/40%/30% by weight. (Labrafil M 1944 CS™ of Gattefossé contains polyoxyethylene glyceryl monooleate.) The three-week study was conducted at 40° C. without nitrogen purging of headspace. […] No antioxidant was included, nor was headspace nitrogen purging performed.

[3] = Sulfoxide formation in various lipid solutions, two-week stress test (Example 4); format: physicochemical; conditions: in Labrafil M 1944 CS and Plurol Oleique CC497; two-week stress test 40°C
[4] = Antioxidant testing, two-week stress test (Example 6); format: physicochemical; conditions: for inhibition of oxidative degradation: ABT-263 free base 100 mg/g in LIT-433 vehicle system, at the concentrations tested
[5] = BHA as antioxidant in ternary lipid systems (Example 7); format: physicochemical
Description: A full report of this study is found in Example 7 herein.
Testing was done in stress conditions at 40° C. without nitrogen purging.

[6] = format: physicochemical
Source text: Due to poor lipid solubility of NaMTBS, an alternative way of introducing it to the lipid solution is by adding a concentrated aqueous stock solution of NaMTBS to the lipid solution.

[7] = Storage stability of prototype capsules with and without NaMTBS (Example 12); format: physicochemical; conditions: prototype ABT-263 capsules, especially at 40° C. and 75% RH
Source text: The only difference between the two batches is presence or absence of antioxidant (sodium metabisulfite). The liquids having the composition shown in Table 16 were encapsulated in size 0 hard gelatin capsules and the capsules placed in blister packaging for a chemical stability study. Water content shown in Table 17 is as determined by analysis, and is not directly related to amount of water added with NaMTBS and edetate calcium disodium as in Table 16.

[8] = C8LL (Capmul PG-8/Labrafil M 1944 CS/Labrasol) 40:40:20
[9] = C12LT (Capmul PG-12/Labrafil M 1944 CS/Tween 80) 30:40:30
[10] = C12LT (Capmul PG-12/Labrafil M 1944 CS/Tween 80) 35:40:25
[11] = C12LT (Capmul PG-12/Labrafil M 1944 CS/Tween 80) 40:30:30
[12] = C12LT (Capmul PG-12/Labrafil M 1944 CS/Tween 80) 45:30:25
[13] = LLC (Lauroglycol 90/Labrafil M 1944 CS/Cremophor RH40) 45:30:25
[14] = LLL (Lauroglycol 90/Labrafil M 1944 CS/Labrasol) 40:40:20
[15] = LLL (Lauroglycol 90/Labrafil M 1944 CS/Labrasol) 50:30:20
[16] = LOC (Labrafil M 1944 CS/oleic acid/Cremophor RH40) 30:60:10
[17] = LOC (Labrafil M 1944 CS/oleic acid/Cremophor RH40) 40:50:10
[18] = LOT (Labrafil M 1944 CS/oleic acid/Tween 80) 30:40:30
[19] = LOT (Labrafil M 1944 CS/oleic acid/Tween 80) 30:45:25
[20] = LOT (Labrafil M 1944 CS/oleic acid/Tween 80) 40:30:30
[21] = LOT (Labrafil M 1944 CS/oleic acid/Tween 80) 40:35:25
[22] = OLL (oleic acid/Labrafil M 1944 CS/Labrasol) 40:40:20
[23] = OLL (oleic acid/Labrafil M 1944 CS/Labrasol) 50:30:20
[24] = OLL (oleic acid/Labrafil M 1944 CS/Labrasol) 50:40:10
[25] = OLL (oleic acid/Labrafil M 1944 CS/Labrasol) 60:30:10

CC1(C)CCC(c2ccc(Cl)cc2)=C(CN2CCN(c3ccc(C(=O)NS(=O)(=O)c4ccc(N[C@H](CCN5CCOCC5)CSc5ccccc5)c(S(=O)(=O)C(F)(F)F)c4)cc3)CC2)C1.Cl.Cl [ABT-263 bis-HCl salt]
ABT-263 solubility [1, 8]: ✓
ABT-263 solubility [1, 9]: ✓
ABT-263 solubility [1, 10]: ✓
ABT-263 solubility [1, 11]: ✓
ABT-263 solubility [1, 12]: ✓
ABT-263 solubility ([1]; ILC (Imwitor 742/Labrafil M 1944 CS/Cremophor RH40) 40:40:20): ✓
ABT-263 solubility ([1]; ILC (Imwitor 742/Labrafil M 1944 CS/Cremophor RH40) 50:30:20): ✓
ABT-263 solubility ([1]; ILC (Imwitor 742/Labrafil M 1944 CS/Cremophor RH40) 50:40:10): ✓
ABT-263 solubility ([1]; ILC (Imwitor 742/Labrafil M 1944 CS/Cremophor RH40) 60:30:10): ✓
ABT-263 solubility ([1]; ILL (Imwitor 742/Labrafil M 1944 CS/Labrasol) 40:40:20): ✓
ABT-263 solubility ([1]; ILL (Imwitor 742/Labrafil M 1944 CS/Labrasol) 50:30:20): ✓
ABT-263 solubility ([1]; ILL (Imwitor 742/Labrafil M 1944 CS/Labrasol) 50:40:10): ✓
ABT-263 solubility ([1]; ILL (Imwitor 742/Labrafil M 1944 CS/Labrasol) 60:30:10): ✓
ABT-263 solubility ([1]; LIT (Labrafil M 1944 CS/Imwitor 742/Tween 80) 30:40:30): ✓
ABT-263 solubility ([1]; LIT (Labrafil M 1944 CS/Imwitor 742/Tween 80) 30:45:25): ✓
ABT-263 solubility ([1]; LIT (Labrafil M 1944 CS/Imwitor 742/Tween 80) 40:30:30): ✓
ABT-263 solubility ([1]; LIT (Labrafil M 1944 CS/Imwitor 742/Tween 80) 40:35:25): ✓
ABT-263 solubility [1, 13]: ✓
ABT-263 solubility [1, 14]: ✓
ABT-263 solubility [1, 15]: ✓
ABT-263 solubility ([1]; LLL (Lauroglycol 90/Labrafil M 1944 CS/Labrasol) 50:40:10): ✓
ABT-263 solubility ([1]; LLL (Lauroglycol 90/Labrafil M 1944 CS/Labrasol) 60:30:10): ✓
ABT-263 solubility [1, 16]: ✓
ABT-263 solubility [1, 17]: ✓
ABT-263 solubility [1, 18]: ✓
ABT-263 solubility [1, 19]: ✓
ABT-263 solubility [1, 20]: ✓
ABT-263 solubility [1, 21]: ✓
ABT-263 solubility [1, 22]: ✓
ABT-263 solubility [1, 23]: ✓
ABT-263 solubility [1, 24]: ✓
ABT-263 solubility [1, 25]: ✓
color change upon aging [2]: pronounced color darkening

CC1(C)CCC(c2ccc(Cl)cc2)=C(CN2CCN(c3ccc(C(=O)NS(=O)(=O)c4ccc(N[C@H](CCN5CCOCC5)CSc5ccccc5)c(S(=O)(=O)C(F)(F)F)c4)cc3)CC2)C1 [ABT-263]
ABT-263 solubility [1, 8]: ✓
ABT-263 solubility [1, 9]: ✓
ABT-263 solubility [1, 10]: ✓
ABT-263 solubility [1, 11]: ✓
ABT-263 solubility [1, 12]: ✓
ABT-263 solubility [1, 13]: ✓
ABT-263 solubility [1, 14]: ✓
ABT-263 solubility [1, 15]: ✓
ABT-263 solubility [1, 16]: ✓
ABT-263 solubility [1, 17]: ✓
ABT-263 solubility [1, 18]: ✓
ABT-263 solubility [1, 19]: ✓
ABT-263 solubility [1, 20]: ✓
ABT-263 solubility [1, 21]: ✓
ABT-263 solubility [1, 22]: ✓
ABT-263 solubility [1, 23]: ✓
ABT-263 solubility [1, 24]: ✓
ABT-263 solubility [1, 25]: ✓
degradation [3]: significant degradation

COc1ccc(O)c(C(C)(C)C)c1 [BHA, butylated hydroxyanisole]
inhibition of oxidative degradation [4]: inhibited oxidative degradation to some extent
effect on sulfoxide formation ([5]; 0.2% by weight BHA in 15% by weight ABT-263 free base in IPT-253, 4-week study at 40°C without nitrogen purging): no effect
inhibition of sulfoxide formation ([5]; 0.2% w/w BHA, ABT-263 150 mg/g in IPT-253 and LIT-433, 40°C without nitrogen purging): did not provide any inhibition

Cc1cc(C(C)(C)C)c(O)c(C(C)(C)C)c1 [BHT, butylated hydroxytoluene]
inhibition of oxidative degradation [4]: inhibited oxidative degradation to some extent

OCC(O)CS (centres unmarked) [Thioglycerol, thioglycerol]
inhibition of drug oxidation ([4]; ABT-263 free base 100 mg/g, both vehicle systems (Lipoid S75 MCT, LIT-433)): effective inhibition

CCCCCCCCCCCCCCCC(=O)OC[C@H](O)[C@H]1OC(=O)C(O)=C1O [ascorbyl palmitate]
inhibition of oxidative degradation [4]: inhibited oxidative degradation to some extent

O=S([O-])S(=O)(=O)[O-].[Na+].[Na+] [sodium metabisulfite]
inhibition of oxidative degradation [4]: inhibited oxidative degradation to some extent
final NaMTBS concentration giving a clear solution [6]: ≤ 9.67 mg/mL
final NaMTBS concentration at which the lipid solution turned turbid ([6]; 50 mg/ml free base solution in Phosal 53 MCT/ethanol 9:1 v/v, 15% w/v stock solution): ≥ 150 % relative molar concentration
solubility of neat NaMTBS (solids remained) ([6]; 5 days): < 0.05 % w/w
inhibition of formation of total sulfoxides [7]: significantly inhibited

O=S([O-])([O-])=S.[Na+].[Na+] [sodium thiosulfate]
inhibition of oxidative degradation [4]: inhibited oxidative degradation to some extent

α-tocopherols
inhibition of oxidative degradation [4]: ineffective
